# Laboratory results: patent US20230068414A1, “Herbicide combinations comprising glufosinate and trifludimoxazin” (BASF SE, priority 2020, published 2023)
# Tests used:
# [1] = test system: Abutilon theophrasti (ABUTH); test: Greenhouse postemergence weed control, percent injury vs untreated control; format: in vivo
# Source text: (§1) For post-emergence treatments, glufosinate and trifludimoxazin, which had been suspended in water, were applied using spray nozzles providing fine to coarse droplets.
# (§2) The herbicide compounds applied in the examples were used as experimental or commercially available solo or premix formulations which have been diluted with tap water to a suitable concentration. Glufosinate was used as a commercial SL formulation containing 280 g ai/l of glufosinate (Liberty 280 SL, BASF). While the PPO herbicide Vulcarus containing 500 g ai/l trifludimoxazin was used (Vulcarus 500 SC, BASF) formulation.
# (§3) The evaluation for plant injury or damage caused by the chemical compositions was carried out using a scale from 0-100% when compared with the untreated control plants. Here, 0 means no damage and 100 means complete destruction of the plants.
# (§4) 22., E=X+Y−(X*Y/100), where
# (§5) X=effect in percent using herbicide A at an application rate of a;
# (§6) Y=effect in percent using herbicide B at an application rate of b;
# (§7) E=expected effect (in %) of A+B at application rates a+b.
# (§8) The value E corresponds to the effect (plant damage or injury) which is to be expected if the activity of the individual compounds is just additive. If the observed effect is higher than the value E calculated according to Colby, a synergistic effect is present.
# (§9) Weed Control of Glufosinate Plus Trifludimoxazin Mixtures (Greenhouse) Seedlings of velvetleaf (Abutilon theophrasti; ABUTH) and Palmer amaranth (Amaranthus palmeri; AMAPA were treated with postemergence applications of either glufosinate at 246 g ai/ha, trifludimoxazin at 6.25 g ai/ha, or the combination of glufosinate (246 g ai/ha) and trifludimoxazin (6.25 g ai/ha), respectively, when they were 5-10 cm in height. All glufosinate treatments contained 1% (w/v) ammonium sulfate and solo trifludimoxazin treatments contained 1% (w/v) ammonium sulfate plus 1% (v/v) MSO surfactant. Plants were placed in a completely randomized design with four replications per treatment. Percent injury data was collected 21 days after treatment (DAT).
# [2] = test system: Amaranthus palmeri (AMAPA); test: as above; format: in vivo
# Source text: as §1, §2, §3, §4, §5, §6, §7, §8, §9
SMILES,"inhibition at 246 g/ha ([1]; Abutilon theophrasti, post-emergence, 504 h, read-out: Solo Glufosinate (246 g ai/ha) % activity) [%]","inhibition at 246 g/ha ([2]; Amaranthus palmeri, post-emergence, 504 h, read-out: Solo Glufosinate (246 g ai/ha) % activity) [%]","Solo Trifludimoxazin (6.25 g ai/ha) % activity ([1]; ABUTH seedlings 5-10 cm, postemergence, 6.25 g ai/ha, 1% ammonium sulfate plus 1% MSO, 21 DAT) [%]","Solo Trifludimoxazin (6.25 g ai/ha) % activity ([2]; AMAPA seedlings 5-10 cm, postemergence, 6.25 g ai/ha, 1% ammonium sulfate plus 1% MSO, 21 DAT) [%]"
"CP(=O)(O)CCC(N)C(=O)O (racemic) [Glufosinate, (2RS)-2-amino-4-[hydroxy(methyl)phosphinoyl]butyric acid]",23,48,,
C#CCN1C(=O)C(F)(F)Oc2cc(F)c(-n3c(=O)n(C)c(=S)n(C)c3=O)cc21 [Trifludimoxazin],,,70,63
